Assay results reported in patent US4067982A, “Aryl-substituted piperazinyl-alkylamino-uracils, -uracil ethers and -uracil thioethers as therapeutics” (priority 1976, dated 1978).
Read-outs that look alike come from different tables or passages of the source.

Experiments:
[1] = tested on: blood pressure of the narcotized cat; assay: Lowering of the blood pressure, narcotized cat; assay type: in vivo; settings: Felis catus, iv; for ED30: 30% lowering; for ED50: 50% lowering
[2] = tested on: carotid sinus relaxation reflex of the narcotized cat; assay: Inhibition of the carotid sinus reflex, narcotized cat; assay type: in vivo; settings: Felis catus, iv; for ED30: 30% inhibition; for ED50: 50% inhibition
[3] = tested on: blood pressure of the narcotized rat; assay: Lowering of the blood pressure, narcotized rat; assay type: in vivo; parameters: unit not given here; settings: 30% lowering
[4] = tested on: blood pressure increasing effect of adrenaline; assay: Inhibition of the pressor effect of adrenaline, despinalized rat; assay type: in vivo; settings: iv, 0.001 mg/kg i.v. adrenaline, read-out: 50% inhibition of the press. effect after i.v. administration of adrenaline with
mouse [5] = assay: Analgesic effect, thermal stimulation of the tail of the mouse; assay type: in vivo; settings: oral, 25% retardation, read-out: Retardation of the defense reaction upon thermal stimulation of the tail of the mouse by 25%
From the text: The analgesic effect was thereby determined as the delay in the reaction upon thermal stimulation of the tail of the mouse.

in vivo = settings: mouse
mouse [6] = assay: PD50, rotating rod, mouse; assay type: in vivo; settings: ip, read-out: PD50
From the text: The centrally inhibiting effect of the piperazinyl uracils of the invention in the mouse are apparent from Table IV. […] The selective action of the compounds of the invention on the central blood pressure mechanism can be used advantageously in human therapy in the treatment of hypertonic diseases.
a = Dose, at which an average of 50% of the mice fall from a rotating rod.

mouse [7] = assay: SD50, sedation symptoms, mouse; assay type: in vivo
From the text: b = Dose, at which at an average 50% of the mice show the following symptoms: inhibition of the spontaneous motility, sadation, muscle relaxation, loss of gripping and holding ability on a horizontal wire net.

mouse [8] = assay: Inhibition of the motility in the tread wheel, mouse; assay type: in vivo; settings: for inhibition in vivo at 25 mg/kg: ip, 3 h, read-out: % Inhibition of the motility in the tread wheel by 25 mg/kg i.p.
mouse [9] = assay: Prolongation of sleep induced by hexobarbital, mouse; assay type: in vivo; settings: ip, read-out: % prolongation of sleep induced by hexobarbital by 15 mg/kg i.p.
Experimental: d = Percent prolongation of the duration of sleep of mice, which were administered 75 mg/kg hexobarbital, compared with the sleep duration of controls.

[10] = tested on: histamine spasm of the isolated small intestine of the guinea pig; assay: Antihistamine effect, histamine spasm of isolated small intestine
[11] = tested on: blood pressure increasing effect of noradrenaline; assay: Inhibition of the pressor effect of noradrenaline, despinalized rat; assay type: in vivo; settings: iv, 0.001 mg/kg i.v. noradrenaline, read-out: 50% inhibition of the press. effect after i.v. administration of noradrenaline with
Hygroscopicity = assay type: physicochemical; settings: solid product
[12] = mouse, i.p., dose at which an average of 50% of the mice fall from a rotating rod
[13] = mouse, oral, dose at which 50% show inhibition of spontaneous motility, sedation, muscle relaxation, loss of gripping, read-out: SD50 (the source's name)
[14] = mouse, 25 mg/kg i.p., 5 mg/kg d-amphetamine-sulfate, 180 minutes
[15] = mouse, 15 mg/kg i.p., 75 mg/kg hexobarbital, vs controls
[16] = mouse, 5 mg/kg d-amphetamine-sulfate, 180 minutes
[17] = Mus musculus, po, read-out: SD50

Work on `COc1ccccc1N1CCN(CCCNc2c([N+](=O)[O-])c(=O)n(C)c(=O)n2C)CC1` [Example 16, 1,3-dimethyl-4-(γ-[4-(o-methoxyphenyl)-piperazinyl-(1)]-propylamino)-5-nitro-uracil] yielded an ED30 [1] of 0.21 mg/kg, an ED50 [1] of 1 mg/kg and an ED30 [2] of 0.6 mg/kg. For the same compound, the ED50 [2] was 2 mg/kg, the “lowering of the blood pressure by 30% by” value [3] was 1.6 and the ED50 [4] was 0.17 mg/kg. For the same compound, the ED25 (mouse [5]) was 10 mg/kg and the LD50 (in vivo) was 600 mg/kg.

In the case of `CCOc1ccccc1N1CCN(CCCNc2cc(=O)n(C)c(=O)n2C)CC1` [Example 5, 1,3-Dimethyl-4-(γ[4-(o-ethoxyphenyl)-piperazinyl-(1)]-propylamino)-uracil], the “lowering of the blood pressure by 30% by” value [3] is reported as 0.36, the ED50 [4] is reported as 0.24 mg/kg and the ED50 (mouse [6]; [12]) is reported as 26 mg/kg. The ED50 (mouse [7]; [13]) was 98 mg/kg, the inhibition in vivo at 25 mg/kg (mouse [8]; [14]) was 46% and the change in vivo at 15 mg/kg (mouse [9]; [15]) was 126%. The ED25 (mouse [5]) was 9 mg/kg and the LD50 (in vivo) was 250 mg/kg.

In the case of `COc1cccc(N2CCN(CCCNc3cc(=O)n(C)c(=O)n3C)CC2)c1` [Example 7, 1,3-Dimethyl-4-(γ-[4-(m-methoxyphenyl)-piperazinyl-(1)]-propylamino)-uracil], the “50% inhibition of the histamine spasm of the isolated small intestine of the guinea pig” value (“50% inhibition” below) [10] is reported as 2e-08 g/mL.

In the case of `COc1ccc(OC)c(N2CCN(CCCNc3cc(=O)n(C)c(=O)n3C)CC2)c1` [Example 3, 1,3-Dimethyl-4-(γ-[4-(2,5-dimethoxyphenyl)-piperazinyl-(1)]-propylamino)-uracil], the “lowering of the blood pressure by 30% by” value [3] is reported as 1.4, the ED50 [4] is reported as 2.1 mg/kg and the ED25 (mouse [5]) is reported as 7 mg/kg. The LD50 (in vivo) was 430 mg/kg.

With `Cc1ccc(N2CCN(CCCNc3cc(=O)n(C)c(=O)n3C)CC2)cc1` [Example 1, 1,3-Dimethyl-4-(γ-[4-(p-tolyl)-piperazinyl-(1) ]-propylamino)-uracil] the “lowering of the blood pressure by 30% by” value [3] was 2.9, the ED50 [4] was 1.45 mg/kg and the ED50 (mouse [6]; [12]) was 28 mg/kg. The ED50 (mouse [7]; [13]) was 40 mg/kg, the inhibition in vivo at 25 mg/kg (mouse [8]; [14]) was 36% and the change in vivo at 15 mg/kg (mouse [9]; [15]) was 110%. It also gave an ED25 (mouse [5]) of 5 mg/kg and an LD50 (in vivo) of 200 mg/kg.

For `Cn1c(NCCCN2CCN(c3ccccc3)CC2)cc(=O)n(C)c1=O` [Example 11, 1,3-Dimethyl-4-(γ-[4-phenyl-piperazinyl-(1)]-propylamino)-uracil], the “lowering of the blood pressure by 30% by” value [3] was 0.48, the ED50 [4] was 1 mg/kg and the ED50 [11] was over 2.5 mg/kg. For the same compound, the ED50 (mouse [6]; [12]) was 11 mg/kg, the ED50 (mouse [7]; [13]) was 70 mg/kg and the “% Inhibition of the motility in the tread wheel by 12 mg/kg i.p.” value (mouse [8]; [16]) was 22%. It also gave a change in vivo at 15 mg/kg (mouse [9]; [15]) of 130% and an LD50 (in vivo) of 120 mg/kg.

With `Cc1ccccc1N1CCN(CCCNc2c(N=O)c(=O)n(C)c(=O)n2C)CC1` [Example 61, 1,3-Dimethyl-4-([4-(o-tolyl)-piperazinyl-(1)]-propyl-amino)-5-nitroso-uraci] the “lowering of the blood pressure by 30% by” value [3] was 0.5, the ED50 [4] was 0.39 mg/kg and the ED50 [11] was 3.7 mg/kg. The LD50 (in vivo) was 600 mg/kg.

With `CN1CCC(OC(c2ccccc2)c2ccccc2)CC1` [Piprinhydrinate, reference compound] the “50% inhibition” value [10] was 1.5e-08 g/mL.

For `CCCCc1c(NCCCN2CCN(c3ccccc3OC)CC2)n(C)c(=O)n(C)c1=O` [Example 15, 1,3-Dimethyl-4-(γ-[4-(o-methoxyphenyl)-piperazinyl-(1)]-propylamino)-5-n-butyl-uracil], the “lowering of the blood pressure by 30% by” value [3] was 0.36, the ED50 [4] was 0.028 mg/kg and the ED50 [11] was 2.8 mg/kg. For the same compound, the LD50 (in vivo) was 130 mg/kg.

`Cc1c(N(C)C)c(=O)n(-c2ccccc2)n1C` [Aminophenazone, reference compound] showed an ED25 (mouse [5]) of 140 mg/kg.

For `COc1ccccc1N1CCN(CCCNc2c(C)c(=O)n(C)c(=O)n2C)CC1` [Example 14, 1,3,5-Trimethyl-4-(γ-[4-(o-methoxyphenyl)-piperazinyl-(1)]-propylamino)-uracil], the “lowering of the blood pressure by 30% by” value [3] was 0.13, the ED50 [4] was 0.045 mg/kg and the ED50 [11] was 1.2 mg/kg. It also gave an ED50 (mouse [6]; [12]) of 12 mg/kg, an ED50 (mouse [7]; [13]) of 90 mg/kg and an inhibition in vivo at 25 mg/kg (mouse [8]; [14]) of 21%. The change in vivo at 15 mg/kg (mouse [9]; [15]) was 152% and the LD50 (in vivo) was 140 mg/kg.

With `Cn1c(NCCCN2CCN(c3ccc(Cl)cc3)CC2)cc(=O)n(C)c1=O` [Example 13, 1,3-Dimethyl-4-(γ-[4-(p-chlorophenyl)-piperazinyl-(1)]-propylamino)-uracil] the “lowering of the blood pressure by 30% by” value [3] was over 3.4, the ED50 [4] was over 2.5 mg/kg and the “50% inhibition” value [10] was 1e-08 g/mL. For the same compound, the LD50 (in vivo) was 70 mg/kg.

`CNC1=Nc2ccc(Cl)cc2C(c2ccccc2)=[N+]([O-])C1` [Chlordiazepoxyde, reference compound] gave an ED50 (mouse [6]; Mus musculus) of 38 mg/kg, an ED50 (mouse [7]; [17]) of 8 mg/kg and an inhibition in vivo at 25 mg/kg (mouse [8]; Mus musculus) of 30%. The change in vivo at 15 mg/kg (mouse [9]; Mus musculus) was 324%.

Work on `COc1ccccc1N1CCN(CCCOc2cc(=O)n(C)c(=O)n2C)CC1` [Example 9, 1,3-Dimethyl-4-(γ-[4-(o-methoxyphenyl)-piperazinyl-(1)]-propyloxy)-uracil] yielded an ED30 [1] of 0.03 mg/kg, an ED50 [1] of 0.14 mg/kg and an ED30 [2] of 0.17 mg/kg. For the same compound, the ED50 [2] was 0.26 mg/kg, the “lowering of the blood pressure by 30% by” value [3] was over 3.4 and the ED50 [4] was 0.15 mg/kg. It also gave an ED50 (mouse [6]; [12]) of 12 mg/kg, an ED50 (mouse [7]; [13]) of 30 mg/kg and an inhibition in vivo at 25 mg/kg (mouse [8]; [14]) of 79%. It also gave a change in vivo at 15 mg/kg (mouse [9]; [15]) of 140%, an ED25 (mouse [5]) of 10 mg/kg and an LD50 (in vivo) of 400 mg/kg.

In the case of `COc1ccccc1N1CCN(CCCNc2c(N=O)c(=O)n(C)c(=O)n2C)CC1` [Example 19, 1,3-Dimethyl-4-(γ-[4-(o-methoxyphenyl)-piperazinyl-(1)]-propylamino)-5-nitroso-uracil], the hygroscopicity (Hygroscopicity) is reported as “hygroscopic”.

`COc1ccccc1N1CCN(CCCNc2c(N)c(=O)n(C)c(=O)n2C)CC1` [Example 20, 1,3-Dimethyl-4-(γ-[4-(o-methoxyphenyl)-piperazinyl-(1)]-propylamino)-5-amino-uracil] showed an ED30 [1] of 0.05 mg/kg, an ED50 [1] of 0.15 mg/kg and an ED30 [2] of 0.06 mg/kg. For the same compound, the ED50 [2] was 0.15 mg/kg, the “lowering of the blood pressure by 30% by” value [3] was 0.11 and the ED50 [4] was 0.045 mg/kg. The ED50 [11] was 1.6 mg/kg, the ED50 (mouse [6]; [12]) was 34 mg/kg and the ED50 (mouse [7]; [13]) was 80 mg/kg. For the same compound, the inhibition in vivo at 25 mg/kg (mouse [8]; [14]) was 42%, the change in vivo at 15 mg/kg (mouse [9]; [15]) was 62% and the LD50 (in vivo) was 500 mg/kg.

In the case of `Cc1ccccc1N1CCN(CCCNc2cc(=O)n(C)c(=O)n2C)CC1` [Example 12, 1,3-Dimethyl-4-(γ-[4-(o-tolyl)-piperazinyl(1)]-propylamino)-uracil], the ED30 [1] is reported as 0.41 mg/kg, the ED50 [1] is reported as 2.4 mg/kg and the “lowering of the blood pressure by 30% by” value [3] is reported as 1.0. It also gave an ED50 [4] of 0.45 mg/kg, an ED50 [11] of 2.5 mg/kg and an ED50 (mouse [6]; [12]) of 26 mg/kg. The ED50 (mouse [7]; [13]) was 87 mg/kg, the “% Inhibition of the motility in the tread wheel by 12 mg/kg i.p.” value (mouse [8]; [16]) was 42% and the change in vivo at 15 mg/kg (mouse [9]; [15]) was 49%. The ED25 (mouse [5]) was 6.5 mg/kg, the “50% inhibition” value [10] was 3e-08 g/mL and the LD50 (in vivo) was 70 mg/kg.

For `COc1ccccc1N1CCN(C(C)CNc2cc(=O)n(C)c(=O)n2C)CC1` (stereo not drawn) [Example 17, 1,3-Dimethyl-4-(β-[4-(o-methoxyphenyl)-piperazinyl-(1)]-propylamino)-uracil], the “lowering of the blood pressure by 30% by” value [3] was 3.0, the ED50 [4] was 0.16 mg/kg and the ED50 [11] was 2.3 mg/kg. It also gave an LD50 (in vivo) of 220 mg/kg.

Work on `COc1ccccc1N1CCN(CCCNc2c(Br)c(=O)n(C)c(=O)n2C)CC1` [Example 18, 1,3-Dimethyl-4-(γ-[4-(o-methoxyphenyl)-piperazinyl-(1)]-propylamino)-5-bromo-uracil-dihydrobomide] yielded an ED30 [1] of 0.15 mg/kg, an ED50 [1] of over 0.5 mg/kg and an ED30 [2] of 0.13 mg/kg. For the same compound, the ED50 [2] was 1.1 mg/kg.

Compound `CCCC(C)(COC(N)=O)COC(N)=O` [Meprobamate, reference compound] has an ED50 (mouse [6]; Mus musculus) of 95 mg/kg, an ED50 (mouse [7]; [17]) of 300 mg/kg and an inhibition in vivo at 25 mg/kg (mouse [8]; Mus musculus) of 28%. For the same compound, the change in vivo at 15 mg/kg (mouse [9]; Mus musculus) was 18%.
